Measurements published in the supplement of paper PMC5844555.

Experiments:
Test in all cases: 3' UTR reporter interaction score (median-centred robust z-score of log2 firefly/Renilla activity); higher = less repression of the 3' UTR reporter
Conditions in all cases: HEK293T; 48 h
[1] = test system: EZH2
Summary of the method: (§1)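 Using DharmaFECT Duo, HEK293T cells (10,000/well, 96-well plates) were co-transfected with 2.5 pmol miRNA mimic, 100 ng firefly luc2P reporter containing the gene's 3' UTR and 20 ng Renilla pRL-TK control, and dual-luciferase activity was read 48 h later. The interaction score is the log firefly/Renilla ratio as a per-plate robust z-score (median, median absolute deviation), median-centred per miRNA, averaged over at least two independent screens; lower, more negative values indicate interaction.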

[2] = test system: PHF6
Summary of the method: as §1

[3] = test system: MYT1L
Summary of the method: as §1

[4] = test system: HRAS
Summary of the method: as §1

[5] = test system: ZEB2
Summary of the method: as §1

[6] = test system: MYCN
Summary of the method: as §1

[7] = test system: RB1
Summary of the method: as §1

[8] = test system: TP53
Summary of the method: as §1

[9] = test system: NOTCH1
Summary of the method: as §1

[10] = test system: FBXW7
Summary of the method: as §1

[11] = test system: PHOX2B
Summary of the method: as §1

[12] = test system: BRCA2
Summary of the method: as §1

[13] = test system: MYC
Summary of the method: as §1

[14] = test system: MYB
Summary of the method: as §1

Sequence | 3' UTR reporter interaction score [1] | 3' UTR reporter interaction score [2] | 3' UTR reporter interaction score [3] | 3' UTR reporter interaction score [4] | 3' UTR reporter interaction score [5] | 3' UTR reporter interaction score [6] | 3' UTR reporter interaction score [7] | 3' UTR reporter interaction score [8] | 3' UTR reporter interaction score [9] | 3' UTR reporter interaction score [10] | 3' UTR reporter interaction score [11] | 3' UTR reporter interaction score [12] | 3' UTR reporter interaction score [13] | 3' UTR reporter interaction score [14]
UGAGUUGGCCAUCUGAGUGAG | 0.24 | 2.42 | 2.61 | -0.0567 | 0.14 | -3.35 | 0.000132 | -0.988 | 1.03 | -0.251 | -3.59 | -0.135 | -0.317 | 0.927
UGAUAUGUUUGAUAUAUUAGGU | -0.107 | -0.754 | 0.136 | -0.158 | -0.629 | 0.278 | -0.392 | 0.331 | 0.183 | 0.769 | 0.239 | -2.64 | 0.0447 | -0.701
UGAUUGGUACGUCUGUGGGUAGA | -0.0408 | -0.0836 | 0.161 | 0.535 | -0.485 | 0.569 | 0.153 | 0.443 | -4.51 | -0.747 | -0.434 | -0.144 | -2.85 | 1.17
UGAUUGUCCAAACGCAAUUCU | -0.465 | 1.16 | -0.829 | 0.277 | 0.494 | 0.178 | 0.331 | -0.447 | 0.81 | -0.0252 | 0.249 | 0.855 | -2.91 | 0.183
UGCACCAUGGUUGUCUGAGCAUG | 0.00438 | 0.727 | 0.0254 | -0.315 | -1.45 | -5.44 | 0.168 | 0.617 | -0.682 | -1.84 | -1.01 | 0.899 | -0.0708 | 0.379
UGCCUGGGUCUCUGGCCUGCGCGU | -0.794 | 0.782 | -0.227 | -1.95 | 0.387 | -0.0821 | -2.47 | 0.35 | 0.3 | -2.61 | -0.846 | -0.375 | 0.101 | 0.325
UGCUGACUCCUAGUCCAGGGC | 0.906 | 1.06 | 0.333 | -1.77 | -1.99 | 0.0884 | 2.05 | 0.366 | -0.364 | 0.322 | -0.537 | -3.34 | 0.54 | 0.123
UGCUUCCUUUCAGAGGGU | 0.85 | -0.232 | 0.521 | -0.697 | -0.357 | 0.0627 | -0.583 | -1.13 | 0.215 | 0.46 | -0.331 | -0.366 | 0.327 | 1.13
UGGAAGACUAGUGAUUUUGUUG | 0.509 | 0.207 | -1.31 | 0.856 | -0.874 | 0.44 | 0.176 | -1.48 | -0.0478 | -0.892 | 0.182 | -0.32 | -0.317 | 0.454
